# Test results taken from patent US20130317096A1, “SYNERGISTIC INTERACTION OF AT LEAST ONE VITAMIN E COMPONENT AND TYROSINASE INHIBITORS FOR DERMATOLOGICAL APPLICATIONS” (Davos Life Science Pte Ltd, priority 2010, published 2013).
# Entries after “also recorded” stand apart in the source; their conditions may differ.
# Legend:
# [1] = tested on: cleaved caspase 3 and PARP; assay: Western blot of apoptotic molecules; format: cell-based, mouse; conditions: B16 melanoma cells
# [2] = tested on: tyrosinase mRNA; assay: Reverse transcriptase PCR of tyrosinase mRNA; format: cell-based, mouse; conditions: B16 melanoma cells
# From the text: Total RNA was isolated using Trizol reagent according to the manufacturer's protocol (Invitrogen, Carlsbad, Calif., USA). cDNA was synthesized using the SuperScript First Strand Synthesis System (Invitrogen, Carlsbad, Calif., USA) and was then amplified by PCR with tyrosinase-specific primers (forward primer, tyrosinase-S,5′-[…]-3′ [−2236/−2217] (SEQ ID NO: 1) and reverse primer, tyrosinase-AS,5′-[…]-3′ [+63/+42]) (SEQ ID NO: 2) and GAPDH specific primers: 5′ to 3′F […] (SEQ ID NO: 3); 5′ to 3′R […] (SEQ ID NO: 4). The PCR cycling protocol was as follows: 30 cycles for 10 min at 95° C., 30 sec at 95° C., 30 sec at 55° C., 1 min at 72° C., and 10 min at 72° C. Glyceraldehyde 3-phosphate dehydrogenase (GAPDH) was amplified as an internal control. The PCR products were electrophoresed on a 2% agarose gel and analyzed using a gel documentation system.
# [3] = tested on: B16 melanoma cells; assay: Anti-pigmentation effect, photographs of cell pellets; format: cell-based, mouse
# Method: (§1) At different time points, cells were harvested using trysin-EDTA and the cell pellets were washed once with phosphate-buffered saline (PBS). A sample amount from each compound treatment group was divided into two equal parts. These cell pellets were then stored at −80° C. prior to the measurement of the tyrosinase activity and melanin content.
# [4] = tested on: B16 melanoma cells; assay: MTT cell viability assay; format: cell-based, mouse; conditions: 24 hrs of treatment; for B16 melanoma cell viability / proliferation rate: increasing dosages
# Method: B16 mouse melanoma cells were purchased from (ATCC, Manassas, Va., USA).
# The base medium for the cell line was Dulbecco's modified Eagle's medium (DMEM). To make the complete growth medium, fetal bovine serum (final concentration, 10%) was added to the base medium. Tocotrienol (T3) and tocopherol (TP) isomers and the palm tocotrienol-rich fraction (TRF) were purified from a palm fatty acid distillate (PFAD) using molecular distillation and Novasep® equipment (Novasep, Pompey, France). The extraction facility is located in Tuas, Singapore. The PFAD feed was purchased from Kuala Lumpur Kepong Berhad (Kuala Lumpur, Malaysia). The purity of the vitamin E isomers was verified by HPLC and gas chromatography (GC) percentage peak area.
# For the cell viability study, 5×10^3 cells re-suspended in 100 μl of medium were plated into each well of a 96-well plate. The cells were then treated with different concentrations of the vitamin-E isomers for 24 hrs. After the treatment, 20 μl of MTT solution (1 mg/ml in PBS; Sigma-Aldrich, St. Louis, Mo., USA) was added to each well and the cells were incubated at 37° C. for 2 hrs. The formazan crystals were then re-suspended in 200 μl of DMSO and the intensity at 595 nm was measured.
# [5] = tested on: tyrosinase; assay: Western blot of tyrosinase protein expression in B16 melanoma cells; format: cell-based, mouse; conditions: for tyrosinase protein suppression, dose response and relative potency: increasing dosage; for time response of tyrosinase suppression: single dose, 24 hrs versus 48 hrs
# Method: Carcinogenesis, 2006, 27, 2180-9. Briefly, cell lysates were prepared by suspending cell pellets in lysis buffer (50 mmol/l Tris-HCl [pH 8.0], 150 mmol/l NaCl, 1% NP40, 0.5% deoxycholate, 0.1% SDS, […], 1 μg/ml leupeptin, and 1 mmol/l phenylmethylsulfonyl fluoride). The protein concentration was measured using the DC Protein Assay kit (Bio-Rad, Hercules, Calif., USA). An equal amount of protein (30 μg) was loaded onto a 10% SDS polyacrylamide gel for electrophoresis, then transferred onto a polyvinylidene difluoride membrane (Amersham, Piscataway, N.J., USA). The membrane was then incubated with primary antibodies for 1 hr at room temperature against tyrosinase, Id1, and beta-actin (Santa Cruz Biotechnology, Inc., Santa Cruz, Calif., USA). After incubation with appropriate secondary antibodies, signals were visualized by an ECL Western blotting system (Amersham). The expression of β-actin was assessed as an internal loading control for total cell lysate.
# [6] = tested on: tyrosinase; assay: UV-induced tyrosinase protein expression, Western blot; format: cell-based, mouse; conditions: for tyrosinase protein expression of B16 cells exposed to UV: UV 1, 10, 30 and 60 minutes
# Method: (§2) The UVB source for cell irradiation was provided using a UVP UVM-57 handheld UV lamp (UVP Inc, Upland, Calif., USA).
# Briefly, cell lysates were prepared by suspending cell pellets in lysis buffer (50 mmol/l Tris-HCl [pH 8.0], 150 mmol/l NaCl, 1% NP40, 0.5% deoxycholate, 0.1% SDS, 1 mg/ml aprotinin, 1 μg/ml leupeptin, and 1 mmol/l phenylmethylsulfonyl fluoride). The protein concentration was measured using the DC Protein Assay kit (Bio-Rad, Hercules, Calif., USA). An equal amount of protein (30 μg) was loaded onto a 10% SDS polyacrylamide gel for electrophoresis, then transferred onto a polyvinylidene difluoride membrane (Amersham, Piscataway, N.J., USA). The membrane was then incubated with primary antibodies for 1 hr at room temperature against tyrosinase, Id1, and beta-actin (Santa Cruz Biotechnology, Inc., Santa Cruz, Calif., USA). After incubation with appropriate secondary antibodies, signals were visualized by an ECL Western blotting system (Amersham). The expression of β-actin was assessed as an internal loading control for total cell lysate.
# [7] = tested on: B16 melanoma cells; assay: Melanin content of treated B16 melanoma cells; format: cell-based, mouse; conditions: for melanin content lower than controls: 20 μM
# Method: as §1
# Harvested cell pellets were dissolved in 1 ml of 1N sodium hydroxide before incubation at 80° C. The melanin content was then immediately measured at 420 nm. The absorbance percentage values of the treated groups in comparison to untreated controls were calculated against per μg of the determined total protein content.
# [8] = tested on: B16 cells; assay: Melanin content of pre-treated B16 cells after UV exposure; format: cell-based, mouse; conditions: 10 minutes UV exposure (short and long wave UV)
# From the text: as §2
# [9] = tested on: B16 cells xenografted on the flank of nude mice; assay: B16 xenograft model in nude mice; format: in vivo; conditions: cells pre-treated with 20 μM for 1 week, 14 days oral supplementation
# Method: The experimental protocol was approved by the IACUC Committee of the A-STAR Biological Resource Centre (BRC) at Biopolis (IACUC no. 080302). Male BALB/c athymic nude mice (4-5 weeks old, 18-22 g) were purchased from The Jackson Laboratory (Bar Harbor, Me., USA). Mice were housed in Department 1 of the Biological Resource Centre (Biopolis, Singapore) under the standard condition (20.8±2° C., 55±1% relative humidity, 12 hrs light/dark cycle) with rodent diet (Harlan Laboratories, Inc., Indianapolis, Ind., USA) and chlorinated reverse osmosis water supplied in a pathogen-free environment. Briefly, B16 cells were pre-treated with 20 μM of γ- and δ-T3, or palm TRF for 1 week. Then, 5×10^5 pre-treated B16 cells in 100 μl serum-free DMEM were injected subcutaneously into the flank of nude mice using a 1-ml syringe with a 26-gauge needle (Becton Dickinson, Franklin Lakes, N.J., USA). This was followed by a 2-week oral supplementation of γ- and δ-T3, or palm TRF at the dose of 100 mg/kg/day. Altogether, there are four experimental groups: G1, vehicle control; G2, γT3 (100 mg/kg/d); G3, δT3 (100 mg/kg/d); and G4, full spectrum palm TRF (100 mg/kg/d). The mice were weighed daily and the tumors were measured using a Digital Carbon Fiber Caliper (Fisher Scientific, Pittsburgh, Pa., USA) at the 5th and 14th day after innoculation. After 14 days of treatment, the mice were euthanized by CO2 inhalation. Blood samples were collected through cardiac bleeding using a 26-gauge needle. Blood samples were incubated at room temperature for 30 min, followed by centrifugation at 4400 rpm for 30 min at 4° C. Serum, as the supernatant, was separated from plasma and stored at −80° C. Tumors, liver, kidney, spleen, lung, heart, and skin were harvested.
# [10] = 0.05% (3.5 mM kojic acid, 4.5 mM sodium lactate)
compound,measurement,setting,value
O=c1cc(CO)occ1O [kojic acid],induction of apoptotic molecules (cleaved caspase 3 and PARP),[1],induced cellular apoptosis; also recorded: induced critical apoptotic molecules in a dose-dependent manner
same,tyrosinase mRNA,[2],not affected; also recorded: No change of tyrosinase mRNA
same,cell pellet pigmentation,[3]; 20 μM,comparable pigmentation level to controls
same,cell pellet pigmentation,[3]; [10],lighter cell pigmentation
same,concentration with anti-proliferation effect,[4],≥ 0.5%
same,B16 melanoma cell viability / proliferation rate,[4],inhibit B16 melanoma cell viability at high concentrations
"CC(O)C(=O)[O-].[Na+] (stereo not shown) [sodium lactate, reference compound]",tyrosinase protein expression,[5]; 20 μM treatment,did not result in observable down-regulation; also recorded: does not suppress tyrosinase protein expression
same,"tyrosinase protein suppression, dose response and relative potency",[5],observed only at much higher concentration
same,time response of tyrosinase suppression,[5],opposite observation; also recorded: diminished after 48 hrs
same,tyrosinase protein expression,[5]; up to 100 μM,does not suppress tyrosinase protein expression
same,tyrosinase mRNA,[2],not affected; also recorded: No change of tyrosinase mRNA
same,cell pellet pigmentation,[3]; 20 μM,comparable pigmentation level to controls
same,cell pellet pigmentation,[3]; [10],Lighter pigmentation
"Cc1c(C)c2c(c(C)c1O)CC[C@@](C)(CCC[C@H](C)CCC[C@H](C)CCCC(C)C)O2 [α-tocopherol, 5,7,8-trimethyltocol]",time response of tyrosinase suppression,[5],no impact on the suppression of tyrosinase
same,tyrosinase mRNA,[2],No change of tyrosinase mRNA
same,tyrosinase mRNA,[2]; listed as αTP,not affected
same,cell pellet pigmentation,[3]; 20 μM,comparable pigmentation level to controls
same,tyrosinase protein expression of B16 cells exposed to UV,[6],not able to block UVB-induced activation of tyrosinase at all time points tested
"CC(C)=CCC/C(C)=C/CC/C(C)=C/CC[C@]1(C)CCc2c(C)c(O)cc(C)c2O1 [β-tocotrienol, 5,8-dimethyltocotrienol]",induction of apoptotic molecules (cleaved caspase 3 and PARP),[1],induced critical apoptotic molecules in a dose-dependent manner
same,induction of apoptotic molecules (cleaved caspase 3 and PARP),[1]; listed as β-T3,induced cellular apoptosis
same,B16 melanoma cell viability / proliferation rate,[4],inhibited the proliferation rate of B16 melanoma cells in a dose-dependent fashion; also recorded: inhibit B16 melanoma cell viability at high concentrations
"CC(=O)Oc1cc2c(c(C)c1C)OC(C)(CC/C=C(\C)CC/C=C(\C)CCC=C(C)C)CC2 (stereo not shown) [γT3 acetate, γ-tocotrienol acetate]",tyrosinase protein expression,[5]; 20 μM treatment,suppresses tyrosinase protein expression
"CC(C)=CCCC(C)=CCCC(C)=CCCC1(C)CCc2cc(OC(=O)CCC(=O)O)c(C)c(C)c2O1 (stereo not shown) [γT3 succinate, γ-tocotrienol succinate]",tyrosinase protein expression,[5]; up to 60 μM,does not suppress tyrosinase protein expression
"CC(C)=CCC/C(C)=C/CC/C(C)=C/CC[C@]1(C)CCc2cc(O)cc(C)c2O1 [δ-tocotrienol, 8-methyltocotrienol]",melanin content lower than controls,[7]; day 5,45%
same,melanin content lower than controls,[7]; day 9,30%
same,constitutive melanin synthesis,[7]; B16 melanoma cells,suppress constitutive melanin synthesis
same,tyrosinase protein expression,"[5]; 20 μM treatment, listed as δ-T3",remarkable suppression of tyrosinase protein expression
same,tyrosinase protein expression,"[5]; 20 μM treatment, listed as δT3",suppresses tyrosinase protein expression
same,"tyrosinase protein suppression, dose response and relative potency",[5]; listed as δ-T3,significant suppression of tyrosinase in a dose-dependent manner
same,"tyrosinase protein suppression, dose response and relative potency",[5]; listed as δT3,most potent inhibitor of tyrosinase protein
same,time response of tyrosinase suppression,[5]; listed as δ-T3,enhanced by increasing the treatment period from 24 to 48 hrs
same,time response of tyrosinase suppression,[5]; listed as δT3,enhanced after a 48 hr incubation period
same,induction of apoptotic molecules (cleaved caspase 3 and PARP),[1],induced critical apoptotic molecules in a dose-dependent manner
same,induction of apoptotic molecules (cleaved caspase 3 and PARP),[1]; listed as δ-T3,induced cellular apoptosis
same,tyrosinase mRNA,[2],No change of tyrosinase mRNA
same,tyrosinase mRNA,[2]; listed as δ-T3,not affected
same,melanin content after UV exposure,[8],significantly suppressed the melanin content
same,cell pellet pigmentation,"[3]; 20 μM, listed as delta-T3",lighter cell pigmentation
same,cell pellet pigmentation,"[3]; 20 μM, listed as δT3",lighter cell pigmentation
same,pigmentation of solid tumors,[9],lighter in colour compared to controls
same,tumor size,[9],significantly smaller
same,B16 melanoma cell viability / proliferation rate,[4],inhibited the proliferation rate of B16 melanoma cells in a dose-dependent fashion; also recorded: inhibit B16 melanoma cell viability at high concentrations
same,suppression of short-term UVB-induced tyrosinase activation,[6]; <10 min UVB,more potent than γT3
same,tyrosinase protein expression of B16 cells exposed to UV,[6],significantly suppressed the tyrosinase protein expression
same,long-term inhibitory effect on UVB-induced tyrosinase activation,[6]; long-term UVB,comparable
"CC(=O)Oc1cc(C)c2c(c1)CCC(C)(CCC=C(C)CCC=C(C)CCC=C(C)C)O2 (stereo not shown) [δT3 acetate, δ-tocotrienol acetate]",tyrosinase protein expression,[5]; 20 μM treatment,suppresses tyrosinase protein expression
alpha arbutin [reference compound],concentration at which suppression of tyrosinase is observed,[5],1 mM
same,tyrosinase protein expression,[5]; up to 60 μM,does not suppress tyrosinase protein expression
same,induction of apoptotic molecules (cleaved caspase 3 and PARP),[1],induced critical apoptotic molecules in a dose-dependent manner
same,cell pellet pigmentation,[3]; 20 μM,comparable pigmentation level to controls
same,cell pellet pigmentation,[3]; 1 mM,lighter cell pigmentation
same,B16 melanoma cell viability / proliferation rate,[4],inhibit B16 melanoma cell viability at high concentrations
